We go through 40 molecules from patent US9573899B2, “USP7 inhibitor compounds and methods of use” (Genentech, Inc., priority 2015, dated 2017).

In the test the target is T1, USP7, full-length, native C-Terminus (Homo sapiens, UniProt Q93009).
T1 construct: USP7, full-length, native C-Terminus, 0.2 nM
T1 sequence (Q93009 whole entry): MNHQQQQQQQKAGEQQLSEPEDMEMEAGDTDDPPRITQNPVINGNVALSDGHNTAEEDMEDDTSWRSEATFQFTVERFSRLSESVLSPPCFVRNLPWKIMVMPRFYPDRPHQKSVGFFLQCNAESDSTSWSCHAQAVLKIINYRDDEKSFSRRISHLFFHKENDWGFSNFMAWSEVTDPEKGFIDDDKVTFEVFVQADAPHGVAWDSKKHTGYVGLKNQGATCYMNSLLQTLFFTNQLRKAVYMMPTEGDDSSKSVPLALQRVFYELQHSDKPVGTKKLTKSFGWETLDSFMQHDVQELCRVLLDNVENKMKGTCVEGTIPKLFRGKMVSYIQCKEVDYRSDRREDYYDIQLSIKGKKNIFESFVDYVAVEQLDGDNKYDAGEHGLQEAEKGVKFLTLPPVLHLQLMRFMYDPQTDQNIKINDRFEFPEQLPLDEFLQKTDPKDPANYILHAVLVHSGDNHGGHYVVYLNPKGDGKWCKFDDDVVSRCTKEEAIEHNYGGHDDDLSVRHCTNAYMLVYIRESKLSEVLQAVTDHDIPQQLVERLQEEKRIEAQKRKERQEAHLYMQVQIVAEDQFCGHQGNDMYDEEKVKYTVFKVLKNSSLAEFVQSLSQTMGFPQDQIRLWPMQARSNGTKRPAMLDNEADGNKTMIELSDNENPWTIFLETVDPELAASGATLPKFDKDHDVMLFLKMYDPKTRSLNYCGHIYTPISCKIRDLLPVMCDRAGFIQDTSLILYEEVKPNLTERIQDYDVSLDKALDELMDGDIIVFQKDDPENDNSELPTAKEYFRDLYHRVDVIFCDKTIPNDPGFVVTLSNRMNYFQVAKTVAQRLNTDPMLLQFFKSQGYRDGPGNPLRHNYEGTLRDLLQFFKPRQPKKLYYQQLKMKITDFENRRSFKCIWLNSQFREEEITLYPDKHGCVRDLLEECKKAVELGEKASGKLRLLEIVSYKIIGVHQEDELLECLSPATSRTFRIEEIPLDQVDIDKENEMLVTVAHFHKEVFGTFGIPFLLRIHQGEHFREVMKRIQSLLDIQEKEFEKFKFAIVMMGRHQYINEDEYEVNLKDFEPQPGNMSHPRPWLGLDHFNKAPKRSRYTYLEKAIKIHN
Description: Biochemical USP7 assay with Ubiquitin-Rho110 substrate, compounds pre-incubated with USP7 (USP7_Ub-Rho preInc). The settings on record: compounds pre-mixed with USP7, 1 hour incubation, before substrate; read-out: USP7 Ub-Rho preInc (IC50). The protocol: Biochemical USP7 assays using Ubiquitin-Rho110 as a substrate: The final assay conditions were as follows: The Reaction Buffer consisted of: 50 mM Tris (pH 7.5), 0.01% (v/v) Triton X-100, 2.5 mM Dithiothreitol, 0.1% (w/v) bovine gamma globulin (Sigma cat #G5009-25G); USP7, full-length, native C-Terminus, 0.2 nM; the substrate, Ubiquitin-Rho110 (Boston Biochem cat #U-555), 1 uM. Reactions were carried out for 1 hour at room temperature, in black 20 μL volume polystyrene ProxiPlate 384 F Plus® (PerkinElmer cat #6008260).
Test compounds, including a control USP7 inhibitor (Ub-aldehyde, Boston Biochem cat #U-201) were serially diluted in DMSO, in 384 well clear V-bottom polypropylene plates (Greiner cat #781280). Compounds in DMSO were diluted 10-fold into Reaction Buffer, to achieve 3-fold the final desired concentration. The substrate, Ubiquitin-Rho110 (Boston Biochem cat #U-555), was prepared at 3 μM (3-fold the final concentration) and 5 ul was dispensed into the reaction plate. 5 ul of the compounds (diluted in Reaction Buffer at 3-fold the final concentration) were transferred to the reaction plate. 5 ul of 0.6 nM USP7 (diluted in Reaction Buffer at 3-fold the final concentration) was transferred to the reaction plate to initiate the reaction. After 1 hour incubation at room temperature the reaction was quenched by the addition of 5 ul of 400 mM acetic acid. The enzymatic product was measured by quantifying the fluorescence signal of cleaved Rhodamine-110 using excitation at 485 nm and emission at 535 nm. When pre-incubation of USP7 with compounds was required, the order of addition of reagents was modified to pre-mix the compounds with USP7 (with a 1 hour incubation period), prior to the addition of the substrate and the initiation of the reaction period. Percentage inhibition values were calculated relative to a no enzyme control and a uninhibited enzyme control. Curve fitting and IC50 calculations were carried out using Genedata Screener software.
In the case of `CCc1c(-c2ccccc2F)cnc(N)c1-c1ccc(O)cc1` [Compound 50, 4-[2-amino-4-ethyl-5-(2-fluorophenyl)-3-pyridyl]phenol], the 50% inhibitory concentration (IC50) (as a rule, the concentration that gives 50% inhibition) is 14.2 µM.
On to `CCc1c(-c2ccc(OC)nc2)cnc(N)c1-c1ccc(O)cc1` [Compound 68, 4-[2-amino-4-ethyl-5-(6-methoxy-3-pyridyl)-3-pyridyl]phenol], for which the IC50 was > 63.3 µM.
Then `CCc1c(-c2ccc3cn[nH]c3c2)cnc(N)c1-c1ccc(O)cc1` [Compound 84, 4-[2-amino-4-ethyl-5-(1H-indazol-6-yl)-3-pyridyl]phenol], with 7.2 µM; and `CCc1c(-c2ccc(O)cc2)cnc(N)c1-c1ccc(NC(=O)OC(C)(C)C)cc1` [Compound 21, tert-butyl N-[4-[2-amino-4-ethyl-5-(4-hydroxyphenyl)-3-pyridyl]phenyl]carbamate], with > 20 µM.
For `CCc1c(-c2cccc(OC)c2)cnc(N)c1-c1ccc(O)cc1` [Compound 52, 4-[2-amino-4-ethyl-5-(3-methoxyphenyl)-3-pyridyl]phenol], the IC50 is 50.1 µM.
Then `CCCNc1ncc(-c2ccc(O)cc2)c(CC)c1-c1ccc(O)cc1` [Compound 15, 4-[4-ethyl-5-(4-hydroxyphenyl)-6-(propylamino)-3-pyridyl]phenol], with 10.1 µM; and `CCc1c(-c2ccc(O)cc2)cnc(N)c1-c1cccc(NS(C)(=O)=O)c1` [Compound 41, N-[3-[2-amino-4-ethyl-5-(4-hydroxyphenyl)-3-pyridyl]phenyl]methanesulfonamide], with 118 µM; and `CCc1c(-c2ccc(Cl)c(C)c2)cnc(N)c1-c1ccc(O)cc1` [Compound 44, 4-[2-amino-5-(4-chloro-3-methyl-phenyl)-4-ethyl-3-pyridyl]phenol], with > 20 µM.
With `CCc1c(-c2cccc(Cl)c2)cnc(N)c1-c1ccc(O)cc1` [Compound 77, 4-[2-amino-5-(3-chlorophenyl)-4-ethyl-3-pyridyl]phenol], the IC50 was 11 µM.
The result for `CCc1c(-c2cccc(N3CCNCC3)c2)cnc(N)c1-c1ccc(O)cc1` [Compound 42, 4-[2-amino-4-ethyl-5-(3-piperazin-1-ylphenyl)-3-pyridyl]phenol] reads 165 µM; that for `CCc1c(-c2cccc(C#N)c2)cnc(N)c1-c1ccc(O)cc1` [Compound 49, 3-[6-amino-4-ethyl-5-(4-hydroxyphenyl)-3-pyridyl]benzonitrile], 5.4 µM.
Then `CCc1c(-c2ccc(N)cc2)cnc(N)c1-c1ccc(O)cc1` [Compound 91, 4-[2-amino-5-(4-aminophenyl)-4-ethyl-3-pyridyl]phenol], with 47 µM; and `CCc1c(-c2cccc3nn(C)cc23)cnc(N)c1-c1ccc(O)cc1` [Compound 85, 4-[2-amino-4-ethyl-5-(2-methylindazol-4-yl)-3-pyridyl]phenol], with 14.6 µM; and `CCc1c(-c2cncc(C#N)c2)cnc(N)c1-c1ccc(O)cc1` [Compound 63, 5-[6-amino-4-ethyl-5-(4-hydroxyphenyl)-3-pyridyl]pyridine-3-carbonitrile], with 11.7 µM.
Consider `CCc1c(-c2cnc(OC)nc2)cnc(N)c1-c1ccc(O)cc1` [Compound 83, 4-[2-amino-4-ethyl-5-(2-methoxypyrimidin-5-yl)-3-pyridyl]phenol], for which the IC50 came out at 136 µM.
Then `CCc1c(-c2ccncc2)cnc(N)c1-c1ccc(O)cc1` [Compound 38, 4-[2-amino-4-ethyl-5-(4-pyridyl)-3-pyridyl]phenol], with 52.4 µM; and `CCc1c(-c2cc(F)cc(F)c2)cnc(N)c1-c1ccc(O)cc1` [Compound 76, 4-[2-amino-5-(3,5-difluorophenyl)-4-ethyl-3-pyridyl]phenol], with > 20 µM.
The result for `CCc1c(-c2ccc(O)cc2)cnc(N)c1-c1ccc(N(C)C(=O)OC(C)(C)C)cc1` [Compound 28, tert-butyl N-[4-[2-amino-4-ethyl-5-(4-hydroxyphenyl)-3-pyridyl]phenyl]-N-methyl-carbamate] reads > 20 µM; that for `CCc1c(-c2ccc(O)cc2)cnc(N)c1-c1cccc(CNC(=O)OC(C)(C)C)c1` [Compound 23, tert-butyl N-[[3-[2-amino-4-ethyl-5-(4-hydroxyphenyl)-3-pyridyl]phenyl]methyl]carbamate], > 6.3 µM; that for `CCc1c(-c2ccc(C(=O)N3CCOCC3)cc2)cnc(N)c1-c1ccc(O)cc1` [Compound 60, [4-[6-amino-4-ethyl-5-(4-hydroxyphenyl)-3-pyridyl]phenyl]-morpholino-methanone], 167 µM.
For the molecule `CCc1c(-c2cccc(C(N)=O)c2)cnc(N)c1-c1ccc(O)cc1` [Compound 46, 3-[6-amino-4-ethyl-5-(4-hydroxyphenyl)-3-pyridyl]benzamide], the IC50 was 114 µM.
Consider `CCc1c(-c2ccc(O)cc2)cnc(N)c1-c1ccc2[nH]nc(C)c2c1` [Compound 59, 4-[6-amino-4-ethyl-5-(3-methyl-1H-indazol-5-yl)-3-pyridyl]phenol], for which the IC50 turned out to be 19.3 µM.
Regarding `CCc1c(-c2ccc(O)cc2)cnc(NC)c1-c1ccc(O)cc1` [Compound 43, 4-[4-ethyl-5-(4-hydroxyphenyl)-6-(methylamino)-3-pyridyl]phenol], the IC50 came out at 6.8 µM.
In the case of `CCc1c(-c2ccc(O)c(C#N)c2)cnc(N)c1-c1ccc(O)cc1` [Compound 94, 5-[6-amino-4-ethyl-5-(4-hydroxyphenyl)-3-pyridyl]-2-hydroxy-benzonitrile], the IC50 amounted to 9.6 µM.
The result for `CCc1c(-c2ccc(C#N)cc2)cnc(N)c1-c1ccc(O)cc1` [Compound 51, 4-[6-amino-4-ethyl-5-(4-hydroxyphenyl)-3-pyridyl]benzonitrile] reads 44.2 µM; that for `CCc1c(-c2ccc(O)cc2)cnc(N)c1-c1ccccc1` [Compound 16, 4-(6-amino-4-ethyl-5-phenyl-3-pyridyl)phenol], 60.7 µM.
The result for `CCc1c(-c2ccccc2Cl)cnc(N)c1-c1ccc(O)cc1` [Compound 78, 4-[2-amino-5-(2-chlorophenyl)-4-ethyl-3-pyridyl]phenol] reads 15.7 µM.
The result for `CCc1c(-c2ccc(=O)[nH]c2)cnc(N)c1-c1ccc(O)cc1` [Compound 58, 5-[6-amino-4-ethyl-5-(4-hydroxyphenyl)-3-pyridyl]-1H-pyridin-2-one] reads 93.3 µM.
In the case of `CCc1c(-c2ccc(O)cc2)cnc(N)c1-c1cccc(CC#N)c1` [Compound 27, 2-[3-[2-amino-4-ethyl-5-(4-hydroxyphenyl)-3-pyridyl]phenyl]acetonitrile], the IC50 was 48.7 µM.
Take `CCc1c(-c2ccc(F)c(C)c2)cnc(N)c1-c1ccc(O)cc1` [Compound 79, 4-[2-amino-4-ethyl-5-(4-fluoro-3-methyl-phenyl)-3-pyridyl]phenol]: the IC50 was > 20 µM.
Then `CCc1c(-c2cccc(C(C)C)c2)cnc(N)c1-c1ccc(O)cc1` [Compound 47, 4-[2-amino-4-ethyl-5-(3-isopropylphenyl)-3-pyridyl]phenol], with > 20 µM.
As for `CCc1c(-c2ccc(F)c(F)c2)cnc(N)c1-c1ccc(O)cc1` [Compound 48, 4-[2-amino-5-(3,4-difluorophenyl)-4-ethyl-3-pyridyl]phenol], the IC50 was 11.6 µM.
The result for `CCc1c(-c2cccc(CC#N)c2)cnc(N)c1-c1ccc(O)cc1` [Compound 66, 2-[3-[6-amino-4-ethyl-5-(4-hydroxyphenyl)-3-pyridyl]phenyl]acetonitrile] reads 18.3 µM; that for `CCc1c(-c2ccc(O)cc2)cnc(N)c1-c1cncc(C#N)c1` [Compound 29, 5-[2-amino-4-ethyl-5-(4-hydroxyphenyl)-3-pyridyl]pyridine-3-carbonitrile], 18.6 µM.
Then `CCc1c(-c2cccc(NC(C)=O)c2)cnc(N)c1-c1ccc2cn[nH]c2c1` [Compound 14, N-[3-[6-amino-4-ethyl-5-(1H-indazol-6-yl)-3-pyridyl]phenyl]acetamide], with 136 µM; and `CCc1c(-c2ccccc2)cnc(N)c1-c1ccc(O)cc1` [Compound 37, 4-(2-amino-4-ethyl-5-phenyl-3-pyridyl)phenol], with 17.8 µM.
With `CCc1c(-c2cccc(C)c2)cnc(N)c1-c1ccc(O)cc1` [Compound 57, 4-[2-amino-4-ethyl-5-(m-tolyl)-3-pyridyl]phenol], the IC50 was > 20 µM.
The result for `CCc1c(-c2cccnc2)cnc(N)c1-c1ccc(O)cc1` [Compound 39, 4-[2-amino-4-ethyl-5-(3-pyridyl)-3-pyridyl]phenol] reads 41 µM; that for `CCc1c(-c2ccnc(C)c2)cnc(N)c1-c1ccc(O)cc1` [Compound 73, 4-[2-amino-4-ethyl-5-(2-methyl-4-pyridyl)-3-pyridyl]phenol], 47.3 µM; that for `CCc1c(-c2ccc(O)cc2)cnc(N)c1-c1cccc(CN2CCOCC2)c1` [Compound 26, 4-[6-amino-4-ethyl-5-[3-(morpholinomethyl)phenyl]-3-pyridyl]phenol], 145 µM.
